Where no end group is shown, it is not given here. The star is where a group is joined. Biotin = O=C1N[C@H]2[C@H](CS[C@H]2CCCCC(=O)*)N1
Experiments:
[1] = system: EDB in U-87 MG glioblastoma xenograft tumor sections; assay: Immunofluorescence staining of U-87 MG tumor tissue sections; parameters: species or system human U-87 MG grown as mouse xenograft; conditions: biotinylated miniprotein tetramerized with Cy3-labeled streptavidin, 6 µm sections
Protocol: Cryopreserved tumor pieces were cut in 6-µm-thick sections, fixed in ice cold acetone for 5 min, and air-dried. Slides were then blocked in PBS with 3% BSA at RT for 5 min. For staining of EDB, 1 µg of the respective biotinylated cystine-knot miniprotein was incubated with 2.9 µg streptavidin-Cy3 conjugate (Rockland Immunochemicals) at RT for 30 min. The pre-formed complex or 0.1 µg AF680-(MC-FN-010)3 and anti-mouse CD31 antibody (RB-10333-P1, Thermo Fisher) diluted 1:100 in PBS with 1% BSA was then added to the tumor sections and incubated for 30 min at 37 °C. Afterwards, slides were washed three times with PBS containing 1% BSA. CD31 staining of sections treated with pre-formed complex was performed with a rat anti-mouse CD31 IgG antibody (102416; BioLegend) diluted 1:100 in PBS with 1% BSA for 30 min at 37 °C and detected with a secondary […] IgG-Cy3 antibody (111-165-003; Jackson ImmunoResearch) diluted 1:400 in PBS with 1% BSA for 30 min at 37 °C. After three washing steps in PBS, cell nuclei were stained with Höchst 33342 (Thermo Fisher Scientific) diluted 1:5000 in PBS for 30 min at RT. Slides were washed again as described above and covered with coverslips in a thin layer of mounting medium (Dako). Images were captured with a Zeiss Apotome microscope (Carl Zeiss) and analyzed with ZEN software (Carl Zeiss).

FN-B = assay: Hit identification ranking score (FN-B to BSA ELISA signal normalized to expression rate); format: binding, human; conditions: signal (FN-B) to noise (BSA) ELISA ratio normalized to expression rate of Trx-cystine-knot miniprotein; MCopt 1.0 library
Protocol: Single colonies were picked, sequenced, and transferred to a 96-well plate for small-scale expression in 1 mL autoinduction medium (MagicMedia™; Thermo Fisher Scientific). Protein production was conducted overnight at 30 °C and 220 rpm. Cells were harvested by centrifugation at 3000 × g for 15 min, lysed via incubation in buffer (20 mM Tris, 2 mM MgCl2, 20 mM NaCl, pH 8) containing 0.1 mg/mL lysozyme (Merck Millipore) and 5 U/mL benzonase (Merck Millipore) combined with a freeze–thaw cycle, and heated for 10 min at 80 °C. After a final centrifugation (3000 × g, 15 min, 4 °C) to remove cell debris, the supernatant was collected for E-PAGE™ and binding analysis. E-PAGE^TM (Life Technologies) was used as a high throughput gel system to simultaneously analyze 96-probes in parallel for a quantification of produced and heat-purified proteins. E-PAGE^TM analysis was performed according to the manufacturer's instructions. ELISA was used as a technique to analyze protein–protein interactions. […] The wells were washed three times with PBS-T (1× PBS with 0.1% (w/v) Tween-20), blocked with 1× Casein buffer (Sigma Aldrich) diluted in PBS for 2 h at RT, and washed again as described. 20 µL of supernatant containing the respective heat-purified fusion protein were added to 80 µL PBS-T or 200 nM of MC-Myc-010 fusion protein (wells with anti-c-myc antibody) diluted in PBS-T, applied to the cavities, and incubated for 1 h at 4 °C. After three times of washing with PBS-T, binding of the respective variant was detected with a horseradish peroxidase (HRP)-conjugated anti-S-tag antibody (ab18589 or ab19324; Abcam) 1:2000 diluted in PBS. Enzymatic reaction was measured with TMB as a chromogenic substrate and stopped with 0.2 M HCl after approximately 5 min. The measurement of absorbance at 450 nm was performed using an Infinite M200 PRO Microplate Reader (Tecan). […]
Ranking scores were calculated on the basis of the signal (FN -B) to noise (BSA)
ratios determined via ELISA and were further normalized to the expression rate of Trx -cystine-knot […]

[2] = biological target: T1, biotinylated human FN-67B89 (Homo sapiens, UniProt P02751); assay: Surface plasmon resonance, binding kinetics to FN-67B89; conditions: for binding of tag-free variant to FN-67B89 by SPR: Fig 2d, multi-cycle kinetics, 50 to 1000 nM
T1 construct: flanked by its surrounding type III domains (FN-67B89, amino acid G1080-E1455); made in house; host or cells: E. coli BL21 (DE3), pET-21a
T1 sequence (P02751 1080-1546): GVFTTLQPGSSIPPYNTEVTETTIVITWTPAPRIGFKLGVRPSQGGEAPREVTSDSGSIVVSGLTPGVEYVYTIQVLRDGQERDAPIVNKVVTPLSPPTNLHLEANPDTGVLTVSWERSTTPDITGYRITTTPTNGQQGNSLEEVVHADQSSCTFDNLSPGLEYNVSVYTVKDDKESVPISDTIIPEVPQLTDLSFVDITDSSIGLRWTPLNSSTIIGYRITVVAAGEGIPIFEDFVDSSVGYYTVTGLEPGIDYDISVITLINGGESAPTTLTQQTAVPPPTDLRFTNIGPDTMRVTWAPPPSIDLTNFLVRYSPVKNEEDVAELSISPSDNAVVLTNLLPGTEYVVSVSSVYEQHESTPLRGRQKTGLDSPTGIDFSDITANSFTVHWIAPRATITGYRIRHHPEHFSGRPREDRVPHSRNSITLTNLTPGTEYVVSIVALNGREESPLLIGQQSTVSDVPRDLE
Protocol: Binding kinetics of monomeric and trimeric cystine-knot miniprotein ligands to its target protein was determined using a Biacore T-100 device (GE Healthcare Life Science) with PBS-T as running buffer. For this, the biotinylated FN-67B89 protein (200–300 µg/mL) was captured by binding to a flow cell of an SA sensor chip (GE Healthcare Life Science). To analyze monomeric ligands, an immobilized target density of maximum 750 response units (RU) was applied and for trimeric variants a RU of maximum 400 was aimed for. Binding analysis of monomeric ligands was performed using a multi-cycle kinetic method with concentrations ranging from 50 to 4000 nM. A cycle started with an association period of 90 s, followed by a dissociation period of 420 s and a final regeneration step. Kinetic measurement was conducted applying a flow rate of 20 µL/min. Trimeric variants were analyzed under the same association and dissociation conditions, but using the single-cycle kinetic measurement mode in a constant flow of […]. In this case the analyte concentration was between 1.25 and 10 nM. Binding kinetics and steady-state analysis were calculated using a global kinetic fit model (1:1 Langmuir, Biacore T-100 Evaluation Software; GE Healthcare Life Science).

[3] = system: FN-6789 (type III domains 6–9 without EDB); assay: ELISA binding of Trx-cystine-knot miniproteins to off-target control FN-6789; parameters: species or system human; conditions: FN-6789, streptavidin, milk powder, BSA
[4] = SPR Biacore T-100, biotinylated human FN-67B89 on streptavidin chip, PBS-T, 1:1 Langmuir fit

For “MC-FN-0115-bio: biotinylated MC-FN-0115, tetramerized with Cy3-labeled streptavidin for staining (Biotin-PMCTQRANRIAACRRDSDCTGACICRGNGYCG; also: cystine-knot disulfides, pairing not given here)”, the “staining of U-87 MG tumor sections” value [1] was “did not stain”.

With “PMCTQRKNRIRLCRRDSDCTGACICRGNGYCG (also: bicyclic or more (positions not given here)) [MC-FN-010]” the Ranking value (FN-B) was 2.6 to 0.6, the “binding of tag-free variant to FN-67B89 by SPR” value [2] was “detectable binding activity” and the “affinity / binding constant towards biotinylated FN-67B89 (range in words)” value ([2]; SPR) was “single-digit micromolar range”. It also gave a Kd [2, 4] of 1.58 µM, a Koff [2, 4] of 0.07831 s⁻¹ and a Kon ([2]; SPR Biacore T-100, biotinylated human FN-67B89 on streptavidin chip, PBS-T, 1:1 Langmuir fit, monomers multi-cycle, trimers single-cycle) of 49500 M⁻¹ s⁻¹.

With “WKCQPTNGYRIRCRRDSDCPGDCICRGNGYCG (also: bicyclic or more (positions not given here)) [MC-FN-030, cystine-knot miniprotein clone from MCopt 1.0 library]” the Ranking value (FN-B) was 2.7 to 1.6 and the “binding of tag-free variant to FN-67B89 by SPR” value [2] was “no detectable binding”.

For “WTCTKKYPNTISCRRDSDCRVTCICRGNGYCG (also: bicyclic or more (positions not given here)) [MC-FN-020, cystine-knot miniprotein clone from MCopt 1.0 library, without R-I/V-R-(L) motif]”, the “binding to off-target and control proteins” value [3] was “strong binding” and the Ranking value (FN-B) was 3.7 to 1.7.

Source: PMC6962393, “Targeting the tumor vasculature with engineered cystine-knot miniproteins” (Nature Communications, 2020)
